Data as given in patent publication US7358276B2, “2-Oxo-1-pyrrolidine derivatives, processes for preparing them and their uses” (UCB, S.A., priority 2000, dated 2008).

Key:
[1] = molecular target: T1, Levetiracetam Binding Site (LBS), rat cerebral cortex membranes (Rattus norvegicus, UniProt Q02563); test: LBS binding assay (competitive binding, [3H]-2-[4-(3-azidophenyl)-2-oxo-1-pyrrolidinyl]butanamide); details: 4° C., 120 min
T1 construct: The crude membrane pellet obtained is resuspended in 50 mmol/l Tris-HCl (pH 7.4); from tissue; host or cells: rat cerebral cortex crude membranes (male Sprague-Dawley)

[2] = test system: audiogenic seizures in sound-susceptible mice; test: Animal model of sound-susceptible mice (audiogenic seizures); assay type: in vivo; details: intraperitoneally 60 minutes before induction of audiogenic seizures; doses given in mol/kg
From the text: The activity of the compounds of formula I, or their pharmaceutically acceptable salts, as anticonvulsants can be determined in the audiogenic seizures model. The objective of this test is to evaluate the anticonvulsant potential of a compound by means of audiogenic seizures induced in sound-susceptible mice, a genetic animal model with reflex seizures. In this model of primary generalised epilepsy, seizures are evoked without electrical or chemical stimulation and the seizure types are, at least in part, similar in their clinical phenomenology to seizures occurring in man (Löscher W. & Schmidt D., Epilepsy Res. (1998), 2, p. 145-181; Buchhalter J. R., Epilepsia (1993), 34, S31-S41). Results obtained with compounds of formula I are indicative of a strong pharmacological effect.
The objective of this test is to evaluate the anticonvulsant potency of a compound in sound-susceptible mice, a genetic animal model with reflex seizures. In this model of primary generalised epilepsy, seizures are evoked without electrical or chemical stimulation and the seizure types are, at least in part, similar in their clinical phenomenology to seizures occuring in man (Löscher W. & Schmidt D., Epilepsy Res. (1998), 2, 145-181; Buchhalter J. R., Epilepsia (1993), 34, S31-S41).
Male or female genetically sound-sensitive mice (14-28 g; N=10), derived from a DBA strain originally selected by Dr. Lehmann of the Laboratory of Acoustic Physiology (Paris) and bred in the UCB Pharma Sector husbandry unit since 1978, are used. The experimental design consisted of several groups, one group receiving the vehicle control and the other groups different doses of the test-compound. The compounds are administered intraperitoneally 60 minutes before the induction of audiogenic seizures.
For testing, the animals are placed in small cages, one mouse per cage, in a sound-attenuated chamber. After a period of orientation of 30 seconds, the acoustic stimulus (90 dB, 10-20 kHz) is delivered for 30 seconds via loudspeakers positioned above each cage. During this interval, the mice are observed and the presence of the 3 phases of the seizure activity namely wild running, clonic and tonic convulsions, is recorded. The proportion of mice protected against wild running, clonic and tonic convulsions, respectively, is calculated.
For active compounds, an ED50 value, i.e. the dose producing 50% protection relative to the control group, together with 95% confidence limits, was calculated using a Probit Analysis (SAS/STAT® Software, version 6.09, PROBIT procedure) of the proportions of protected mice for each of the 3 phases of the seizure activity.

T1 sequence (Q02563 whole entry): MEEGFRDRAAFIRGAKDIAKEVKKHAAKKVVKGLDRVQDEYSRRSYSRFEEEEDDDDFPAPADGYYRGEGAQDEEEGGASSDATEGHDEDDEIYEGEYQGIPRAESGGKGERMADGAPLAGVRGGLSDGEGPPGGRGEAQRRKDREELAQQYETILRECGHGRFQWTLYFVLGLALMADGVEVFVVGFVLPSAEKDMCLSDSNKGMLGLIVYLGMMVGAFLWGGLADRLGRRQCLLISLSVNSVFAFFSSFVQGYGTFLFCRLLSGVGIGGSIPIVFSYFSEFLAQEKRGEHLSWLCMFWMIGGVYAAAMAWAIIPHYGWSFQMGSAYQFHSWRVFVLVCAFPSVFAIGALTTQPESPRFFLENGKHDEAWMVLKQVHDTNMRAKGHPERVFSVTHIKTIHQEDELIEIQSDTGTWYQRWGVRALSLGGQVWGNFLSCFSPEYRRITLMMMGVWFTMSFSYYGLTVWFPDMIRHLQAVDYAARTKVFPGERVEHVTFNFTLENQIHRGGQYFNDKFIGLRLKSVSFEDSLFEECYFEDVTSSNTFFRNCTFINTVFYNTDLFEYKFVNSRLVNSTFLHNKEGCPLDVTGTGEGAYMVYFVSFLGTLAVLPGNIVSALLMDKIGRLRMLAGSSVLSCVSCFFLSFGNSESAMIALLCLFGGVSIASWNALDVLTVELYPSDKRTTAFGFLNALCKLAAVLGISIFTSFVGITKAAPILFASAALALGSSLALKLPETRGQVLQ

Row | Molecule | pKi (affinity for the levetiracetam binding site) [1] | ED50 (dose producing 50% protection against audiogenic seizures) [2] | melting point
1 | C=CCC1CC(=O)N([C@@H](CC)C(N)=O)C1 (stereo partly drawn) [Compound 224, (2S)-2-(4-allyl-2-oxo-1-pyrrolidinyl)butanamide] | Particular affinity | Particularly promising activity | 69.2 °C
2 | CCC(C(N)=O)N1CC(CCCc2ccccc2)CC1=O (stereo not shown) [Compound 197] | Particular affinity | Particularly promising activity | 92.5 °C
3 | CCC(C(N)=O)N1CC(C#CBr)CC1=O (stereo not shown) [Compound 264] | Particular affinity | Particularly promising activity | 173.2 °C
4 | CC[C@@H](C(N)=O)N1CC(c2cccc(N=[N+]=[N-])c2)CC1=O (single isomer, unassigned) [Compound 86] | Particular affinity | Particularly promising activity | 94.5 °C
5 | CCC(C(N)=O)N1CC(c2ccc(Cl)c(Cl)c2)CC1=O (stereo not shown) [Compound 187] | Particular affinity | Particularly promising activity | 177.9 °C
6 | CCC(C(N)=O)N1CC(c2ccc(Cl)c(Cl)c2)CC1=O (stereo not shown) [Compound 200] | Particular affinity | Particularly promising activity | 154.4 °C
7 | CCC(C(N)=O)N1CC(CI)CC1=O (stereo not shown) [Compound 103] | Particular affinity | – | 171.7 °C
8 | CC[C@@H](C(N)=O)N1CC(CCC(F)(F)F)CC1=O (stereo partly shown) [Compound 214] | Particular affinity | Particularly promising activity | 120.9 °C
9 | CC[C@@H](C(N)=O)N1CC(CF)CC1=O (stereo partly shown) | – | – | 87.1 °C
10 | CCC(C(N)=O)N1CC(c2cc(C(F)(F)F)cc(C(F)(F)F)c2)CC1=O (stereo not shown) [Compound 185] | Particular affinity | – | 148.6 °C
11 | CCC(C(N)=O)N1CC(c2cccnc2)CC1=O (stereo not shown) [Compound 96] | Particular affinity | Particularly promising activity | 104.3 °C
12 | CC[C@@H](C(N)=O)N1CC(CC2CC2)CC1=O (stereo partly shown) [Compound 212] | Particular affinity | Particularly promising activity | 104.4 °C
13 | CC[C@@H](C(N)=O)N1CC(CC(C)=O)CC1=O (stereo partly shown) [Compound 229] | Particular affinity | Particularly promising activity | 90.6 °C
14 | CC[C@@H](C(N)=O)N1CC(C)CC1=O (stereo partly shown) [36] | – | – | 56.9 °C
15 | CC[C@@H](C(N)=O)N1CC(CN=[N+]=[N-])CC1=O (stereo partly drawn) [Compound 32, (2S)-2-[4-(azidomethyl)-2-oxo-1-pyrrolidinyl]butanamide] | Particular affinity | Particularly promising activity | 84.8 °C
16 | CCC1CC(=O)N([C@@H](CC)C(N)=O)C1 (stereo partly shown) [Compound 152] | Particular affinity | Particularly promising activity | –
17 | CC[C@@H](C(N)=O)N1CC(n2cccc2Br)CC1=O (stereo partly drawn) [Compound 234, (2S)-2-[4-(2-bromo-1H-pyrrol-1-yl)-2-oxo-1-pyrrolidinyl]butanamide] | Particular affinity | Particularly promising activity | –
18 | CC[C@@H](C(N)=O)N1CC(c2cccc(OC)c2)CC1=O (stereo partly shown) [Compound 75] | Particular affinity | – | 91.3 °C
19 | CC[C@@H](C(N)=O)N1CC(c2ccccc2OC)CC1=O (stereo partly shown) [Compound 73] | Particular affinity | – | 112 °C
20 | CC[C@@H](C(N)=O)N1CC(CCc2ccccc2)CC1=O (stereo partly shown) [Compound 176] | Particular affinity | – | 100.2 °C

Row | Molecule | pKi (affinity for the levetiracetam binding site) [1] | ED50 (dose producing 50% protection against audiogenic seizures) [2] | melting point
21 | CCCC1CC(=O)N([C@@H](CC)C(N)=O)C1 (single isomer, unassigned) [Compound 158] | Particular affinity | Particularly promising activity | –
22 | CCC(C(N)=O)N1CC(c2ccco2)CC1=O (stereo not shown) [Compound 196] | Particular affinity | Particularly promising activity | –
23 | CCCC1CC(=O)N([C@@H](CC)C(N)=O)C1 (single isomer, unassigned) [Compound 159] | Particular affinity | Particularly promising activity | –
24 | CC[C@@H](C(N)=O)N1CC(C=C(F)F)CC1=O (stereo partly drawn) [Compound 213, (2S)-2-(2-oxo-4-(2,2-difluorovinyl)-1-pyrrolidinyl)butanamide] | Particular affinity | Particularly promising activity | –
25 | CC[C@H](C(N)=O)N1CC(c2cccs2)CC1=O (stereo partly shown) | – | – | 84 °C
26 | CCC1CC(=O)N([C@@H](CC)C(N)=O)C1 (stereo partly shown) [Compound 151] | Particular affinity | Particularly promising activity | –
27 | CCC(C(N)=O)N1C[C@H](CC(C)(F)F)CC1=O (stereo partly drawn) [Compound 265, 2-[(4S)-4-(2,2-difluoropropyl)-2-oxopyrrolidinyl]butanamide] | Particular affinity | – | 110.9 °C
28 | CC[C@@H](C(N)=O)N1CC(CCc2ccccc2)CC1=O (stereo partly shown) [Compound 175] | Particular affinity | – | 89.5 °C
29 | CCC(C(N)=O)N1CC(C=C(F)F)CC1=O (stereo not shown) [Compound 156] | Particular affinity | Particularly promising activity | –
30 | CCC(C(N)=O)N1CC(CC2CC2)CC1=O (stereo not shown) [Compound 165] | Particular affinity | Particularly promising activity | –
31 | 2-[4-(2,2-dibromovinyl)-2-oxo-1-pyrrolidinyl]butanamide [Compound 47] | Particular affinity | Particularly promising activity | –
32 | CC[C@@H](C(N)=O)N1CC(CSC)CC1=O (stereo partly shown) [Compound 100] | Particular affinity | Particularly promising activity | –
33 | CC[C@@H](C(N)=O)N1CC(c2ccsc2)CC1=O (stereo partly shown) [Compound 83] | Particular affinity | – | 93 to 95 °C
34 | CCC(C(N)=O)N1CC(c2ccco2)CC1=O (stereo not shown) [Compound 195] | Particular affinity | Particularly promising activity | –
35 | (2S)-2-(2-oxo-4-(2,2-difluorovinyl)-1-pyrrolidinyl)butanamide [Compound 222] | Particular affinity | Particularly promising activity | –
36 | CCC(C(N)=O)N1CC(C#CBr)CC1=O (stereo not shown) [Compound 267, 2-(4-bromo-ethynyl-2-oxo-1-pyrrolidinyl)butanamide] | Particular affinity | – | 103.9 °C
37 | CC[C@@H](C(N)=O)N1CC(C)CC1=O (stereo partly shown) [35] | – | – | 73.9 °C
38 | CCCC1CC(=O)N(C(CC)C(N)=O)C1 (stereo not shown) [Compound 201] | Particular affinity | Particularly promising activity | –
39 | CC[C@@H](C(N)=O)N1CC(CBr)CC1=O (stereo partly shown) [Compound 9] | Particular affinity | Particularly promising activity | –
